Tests used:
[1] = target: T1, Jack Bean Urease (Canavalia ensiformis, UniProt P07374); test: biochemical; design: Jack bean urease inhibition, ammonia release by indophenol method, absorbance at 625 nm
Procedure: The enzyme responsible for catalyzing urea, known as urease, helps for the conversion of urea into carbon dioxide (CO2) through hydrolysis. To monitor the production of ammonia (NH3) and inhibit urease activity, we employed the indophenol method.[42] In the reaction mixture, consisting of Jack Bean Urease (200 μL), a buffer with a pH of 8.25 (400 μL, composed of 0.5 mM EDTA, 0.02 M K2HPO4, 0.02 M LiCl, and 120 mM urea), and test compounds (100 μL), incubation was carried out at 25 °C for approximately 30 minutes. […] In the realm of scientific investigation, thiourea functions as a benchmark inhibitor. The determination of the IC50 values entails subjecting both standard and synthesized compounds to varying concentrations under identical experimental conditions.[43,44] […] Thiourea was used as a reference point to assess the effects of substituents about the pyrido[2,3-b]pyrazine based scaffold on their urease inhibitory potential.

[2] = target: T1, Jack Bean Urease; test: indophenol urease inhibition assay (ammonia release, […] nm); assay type: biochemical
From the text: The determination of the IC50 values entails subjecting both standard and synthesized compounds

T1 sequence (P07374 whole entry): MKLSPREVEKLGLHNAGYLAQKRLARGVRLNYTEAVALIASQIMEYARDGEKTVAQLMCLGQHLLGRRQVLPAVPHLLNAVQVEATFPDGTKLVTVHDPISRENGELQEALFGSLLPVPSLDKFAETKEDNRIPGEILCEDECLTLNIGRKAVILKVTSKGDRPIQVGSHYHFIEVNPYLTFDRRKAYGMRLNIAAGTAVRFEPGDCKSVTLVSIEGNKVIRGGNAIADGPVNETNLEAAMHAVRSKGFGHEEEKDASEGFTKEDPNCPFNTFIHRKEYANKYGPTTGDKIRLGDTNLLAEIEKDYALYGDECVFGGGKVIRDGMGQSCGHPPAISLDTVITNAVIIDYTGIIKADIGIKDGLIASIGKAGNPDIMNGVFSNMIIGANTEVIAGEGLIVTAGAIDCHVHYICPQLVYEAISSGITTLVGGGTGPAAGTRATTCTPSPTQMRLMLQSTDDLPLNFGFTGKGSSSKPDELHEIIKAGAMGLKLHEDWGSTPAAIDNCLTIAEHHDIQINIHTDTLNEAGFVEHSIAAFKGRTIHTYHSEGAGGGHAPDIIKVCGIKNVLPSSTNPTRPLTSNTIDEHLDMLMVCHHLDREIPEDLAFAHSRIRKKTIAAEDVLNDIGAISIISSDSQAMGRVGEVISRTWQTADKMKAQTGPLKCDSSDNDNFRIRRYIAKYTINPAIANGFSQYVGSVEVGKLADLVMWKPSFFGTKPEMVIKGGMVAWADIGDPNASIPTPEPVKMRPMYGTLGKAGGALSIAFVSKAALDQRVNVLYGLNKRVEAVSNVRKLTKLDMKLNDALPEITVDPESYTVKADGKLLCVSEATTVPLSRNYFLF

Row | IC50 [1] [µM] | Compound | IC50 [2] [µM]
1 | 6.79 ± 0.92 | O=Cc1ccc(C2C3=C(Nc4nccnc42)c2ccccc2C3=O)cc1 (centres unmarked) [compound 4] | –
2 | – | O=C1C2=C(Nc3nccnc3C2c2ccc(Cl)cc2)c2ccccc21 (centres unmarked) [compound 5] | 4.12 ± 1.18
3 | 4.77 ± 0.92 | O=C1C2=C(Nc3nccnc3C2c2ccc([N+](=O)[O-])cc2)c2ccccc21 (centres unmarked) [compound 6] | –
4 | 11.9 ± 0.34 | COc1ccc(C2C3=C(Nc4nccnc42)c2ccccc2C3=O)cc1 (centres unmarked) [compound 7] | –

Row | Compound | IC50 [1] [µM] | IC50 [2] [µM]
5 | NC(N)=S [thiourea] | 1.94 ± 0.36 | –
